Data taken from patent US20040033251A1, “Active agent delivery system including a polyurethane, medical device, and method” (Medtronic, Inc., priority 2002, published 2004).

Assays:
[1] = Dissolution of coumarin from PL75D/TP blend cap-coated shims in PBS; assay type: physicochemical; conditions: PL75D/TP cap coats over TL/coumarin base coat, 37° C., FIG. 8
Experimental: PL75D was dried at 70° C. at reduced pressure overnight. The dried pellets were compressed between two plates that were pre-heated to 230° C. and maintained for about 5 minutes. After the sample was cooled down to room temperature, it was placed in a vial filled with THF and stirred until dissolved (by visual observation). TP and TL were directly dissolved in THF by stirring the mixtures at room temperature. Coumarin was also dissolved in THF. The concentrations of all the solutions were about 1 wt-%. TL solution and coumarin solution were mixed at a weigh ratio of 1:1. This mixture is the base coating solution of a reservoir system. TP solution and PL75D solution were mixed at various weight ratios to make five different mixtures with the weight ratios of TP to PL75D being 100:0, 75:25, 50:50, 25:75, and 0:100. […]
Dissolution of coumarin from the cap-coated shims was conducted by placing the coated shims in glass vials that contained phosphate buffered saline solution (PBS, potassium phosphate monobasic (NF tested), 0.144 grams per liter (g/L), sodium chloride (USP tested), 9 g/L, and sodium phosphate dibasic (USP tested) 0.795 g/L, pH=7.0 to 7.2 at 37° C., purchased from HyClone, Logan, Utah). […] The concentration of coumarin in all these solutions was measured with a liquid chromatography (HP 1090) that was equipped with a UV detector. […]

[2] = Merck Index 13 edit.; cited from earlier work

SMILES: O=c1ccc2ccccc2o1 [Coumarin]
- Release rate versus cap coat composition [1]: release much faster from a 100% PL75D coated shim than that from 100% TP coated shim
- Volume of cold water in which one gram dissolves [2]: 400 mL
